Results published in patent publication US20240199597A1, “SMALL MOLECULES FOR THE TREATMENT OF KINASE-RELATED DISEASES” (Athos Therapeutics, Inc., priority 2021, published 2024).

What was measured:
A-498 = assay: Cancer cytotoxicity assay (Real-Time-Glo cell viability), A-498; format: cell-based; conditions: Homo sapiens, A498; kidney cancer, 72 hr
Procedure: (§1) The cytotoxicity of Compounds 1, 3, 4, 6, 7, 8, 9, 10, 12 and 13 against cancer cell lines was determined. To determine the optimal plating density for cell viability assays, for each cell line, cells were counted and diluted to final densities of 2.5, 5, 10 and 20 thousand per 100 μL of their respective growth media per well in 96 well plates. The Promega Real-Time-Glo cell viability kit was used to determine the optimal concentration for cell plating so that each cell line would be within the linear part of its growth curve after 72 hrs in culture. For the determination of test compound IC50s, different cancer cell lines were plated in 96 well plates in the pre-determined optimal density for each cell line. Test compounds were then added at different concentrations for the creation of six-point curve and cell density was determined using the Promega Real-Time-Glo cell viability kit after 24, 48, and 72 hrs in culture.

FLT3 = biological target: T1, FLT3 (Homo sapiens, UniProt P36888); assay: Kinase assay (Eurofins DiscoverX KinaseProfiler / KdElect), FLT3; format: binding; conditions: read-out: FLT3 (Kd50 nM)
T1 construct: purchased Eurofins DiscoverX (contract service)
T1 sequence (P36888 27-993): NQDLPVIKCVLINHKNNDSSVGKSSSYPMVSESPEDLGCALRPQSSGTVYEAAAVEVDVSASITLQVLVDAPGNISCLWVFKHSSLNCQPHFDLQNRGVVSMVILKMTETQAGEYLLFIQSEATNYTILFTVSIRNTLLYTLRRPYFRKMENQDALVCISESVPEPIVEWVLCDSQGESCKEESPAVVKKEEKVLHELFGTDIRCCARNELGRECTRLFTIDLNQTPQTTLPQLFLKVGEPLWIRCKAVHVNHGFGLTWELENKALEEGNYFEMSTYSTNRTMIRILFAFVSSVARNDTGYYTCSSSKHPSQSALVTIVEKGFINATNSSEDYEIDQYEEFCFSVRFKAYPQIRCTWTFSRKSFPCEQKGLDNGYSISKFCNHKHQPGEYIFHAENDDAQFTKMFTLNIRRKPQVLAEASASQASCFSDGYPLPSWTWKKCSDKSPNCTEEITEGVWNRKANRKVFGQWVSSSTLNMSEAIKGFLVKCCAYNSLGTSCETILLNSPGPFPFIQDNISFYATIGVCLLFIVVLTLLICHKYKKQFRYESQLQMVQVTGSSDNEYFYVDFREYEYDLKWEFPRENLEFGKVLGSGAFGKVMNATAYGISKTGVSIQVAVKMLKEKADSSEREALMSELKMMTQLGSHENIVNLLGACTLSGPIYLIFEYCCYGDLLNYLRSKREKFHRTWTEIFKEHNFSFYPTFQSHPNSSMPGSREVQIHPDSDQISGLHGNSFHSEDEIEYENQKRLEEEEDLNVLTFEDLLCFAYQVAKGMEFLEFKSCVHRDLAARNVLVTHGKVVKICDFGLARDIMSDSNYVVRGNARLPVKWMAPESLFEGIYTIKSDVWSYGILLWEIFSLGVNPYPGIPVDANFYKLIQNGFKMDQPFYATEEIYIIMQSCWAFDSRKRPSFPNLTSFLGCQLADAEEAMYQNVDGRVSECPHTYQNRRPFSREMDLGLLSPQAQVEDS
Procedure: Stock solutions of the compounds being evaluated were prepared. The IC50 values were determined by the Eurofins DiscoverX services using either the KinaseProfiler or the KdElect kinase activity detection assays.

CLK1 = biological target: T2, CLK1 (Homo sapiens, UniProt P49759); assay: Kinase inhibition assay (Eurofins DiscoverX KinaseProfiler / KdElect), CLK1; format: biochemical
T2 construct: purchased Eurofins DiscoverX (contract service)
Procedure: (§2) The activity of Compounds 1, 3, 4, 6, 7, 8, 9, 10 and 13 in inhibiting CLK1, CLK4, PLK4, and FLT3 kinases was determined. Stock solutions of the compounds being evaluated were prepared. The IC50 values were determined by the Eurofins DiscoverX services using either the KinaseProfiler or the KdElect kinase activity detection assays.

786-O = assay: Cancer cytotoxicity assay (Real-Time-Glo cell viability), 786-O; format: cell-based; conditions: Homo sapiens, 786-0; kidney cancer, 72 hr
Procedure: as §1

Kasumi-1 = assay: Cancer cytotoxicity assay (Real-Time-Glo cell viability), Kasumi-1; format: cell-based; conditions: Homo sapiens, leukemia cell, 72 hr
Procedure: as §1

MV4-11 = assay: Cancer cytotoxicity assay (Real-Time-Glo cell viability), MV4-11; format: cell-based; conditions: Homo sapiens, leukemia cell, 72 hr
Procedure: as §1

HT-29 = assay: Cancer cytotoxicity assay (Real-Time-Glo cell viability), HT-29; format: cell-based; conditions: Homo sapiens, colorectal cancer cell line, 72 hr
Procedure: as §1

OV-90 = assay: Cancer cytotoxicity assay (Real-Time-Glo cell viability), OV-90; format: cell-based; conditions: Homo sapiens, ovarian cancer cell line, 72 hr
Procedure: as §1

SKOV-3 = assay: Cancer cytotoxicity assay (Real-Time-Glo cell viability), SKOV-3; format: cell-based; conditions: Homo sapiens, SK-OV-3; ovarian cancer cell line, 72 hr
Procedure: as §1

CLK4 = biological target: T3, CLK4 (Homo sapiens, UniProt Q9HAZ1); assay: Kinase inhibition assay (Eurofins DiscoverX KinaseProfiler / KdElect), CLK4; format: biochemical
T3 construct: purchased Eurofins DiscoverX (contract service)
Procedure: as §2

PLK4 = biological target: T4, PLK4 (Homo sapiens, UniProt O00444); assay: Kinase inhibition assay (Eurofins DiscoverX KinaseProfiler / KdElect), PLK4; format: biochemical
T4 construct: purchased Eurofins DiscoverX (contract service)
T4 sequence (O00444 1-970): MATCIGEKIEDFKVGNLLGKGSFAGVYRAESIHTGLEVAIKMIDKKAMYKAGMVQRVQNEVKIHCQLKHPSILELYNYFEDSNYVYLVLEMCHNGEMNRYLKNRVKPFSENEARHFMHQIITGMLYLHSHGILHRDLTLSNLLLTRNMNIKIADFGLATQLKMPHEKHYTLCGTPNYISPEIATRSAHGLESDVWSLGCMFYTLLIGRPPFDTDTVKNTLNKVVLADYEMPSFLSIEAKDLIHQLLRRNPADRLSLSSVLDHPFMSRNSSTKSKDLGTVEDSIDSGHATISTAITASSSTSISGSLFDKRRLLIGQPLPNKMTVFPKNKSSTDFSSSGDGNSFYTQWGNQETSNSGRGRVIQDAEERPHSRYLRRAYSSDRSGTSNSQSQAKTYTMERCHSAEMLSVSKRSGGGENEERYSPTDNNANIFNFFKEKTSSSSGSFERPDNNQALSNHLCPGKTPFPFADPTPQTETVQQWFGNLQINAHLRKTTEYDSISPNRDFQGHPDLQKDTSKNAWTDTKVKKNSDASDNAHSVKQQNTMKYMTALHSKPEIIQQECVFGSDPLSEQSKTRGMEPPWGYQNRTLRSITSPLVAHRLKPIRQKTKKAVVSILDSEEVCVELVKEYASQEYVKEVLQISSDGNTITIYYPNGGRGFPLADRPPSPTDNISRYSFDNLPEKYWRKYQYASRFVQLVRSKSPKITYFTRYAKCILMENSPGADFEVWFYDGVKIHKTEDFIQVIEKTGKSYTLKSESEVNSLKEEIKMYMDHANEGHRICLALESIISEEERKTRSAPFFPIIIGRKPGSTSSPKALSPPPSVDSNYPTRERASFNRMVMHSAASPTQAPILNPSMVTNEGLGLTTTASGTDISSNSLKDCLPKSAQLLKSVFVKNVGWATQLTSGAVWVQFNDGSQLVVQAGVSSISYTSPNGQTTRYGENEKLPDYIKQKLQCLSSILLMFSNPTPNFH
Procedure: as §2

HCT-116 = assay: Cancer cytotoxicity assay (Real-Time-Glo cell viability), HCT-116; format: cell-based; conditions: Homo sapiens, colorectal cancer cell line, 72 hr
Procedure: as §1

Kasumi-3 = assay: Cancer cytotoxicity assay (Real-Time-Glo cell viability), Kasumi-3; format: cell-based; conditions: leukemia cell, 72 hr
Procedure: as §1

T2 sequence (P49759 whole entry): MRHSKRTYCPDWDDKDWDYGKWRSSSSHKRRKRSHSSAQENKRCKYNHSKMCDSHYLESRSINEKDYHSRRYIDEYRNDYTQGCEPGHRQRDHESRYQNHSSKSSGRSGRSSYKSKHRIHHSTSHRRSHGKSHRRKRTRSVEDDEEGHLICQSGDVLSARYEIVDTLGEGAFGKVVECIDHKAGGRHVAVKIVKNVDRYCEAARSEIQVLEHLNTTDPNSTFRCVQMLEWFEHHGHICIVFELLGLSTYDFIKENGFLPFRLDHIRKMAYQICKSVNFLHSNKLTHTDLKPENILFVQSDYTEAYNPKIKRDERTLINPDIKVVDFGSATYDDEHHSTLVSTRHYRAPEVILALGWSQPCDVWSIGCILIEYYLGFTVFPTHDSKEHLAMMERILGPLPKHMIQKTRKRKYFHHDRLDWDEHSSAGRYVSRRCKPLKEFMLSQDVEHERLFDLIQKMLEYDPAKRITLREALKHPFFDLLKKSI
T3 sequence (Q9HAZ1 whole entry): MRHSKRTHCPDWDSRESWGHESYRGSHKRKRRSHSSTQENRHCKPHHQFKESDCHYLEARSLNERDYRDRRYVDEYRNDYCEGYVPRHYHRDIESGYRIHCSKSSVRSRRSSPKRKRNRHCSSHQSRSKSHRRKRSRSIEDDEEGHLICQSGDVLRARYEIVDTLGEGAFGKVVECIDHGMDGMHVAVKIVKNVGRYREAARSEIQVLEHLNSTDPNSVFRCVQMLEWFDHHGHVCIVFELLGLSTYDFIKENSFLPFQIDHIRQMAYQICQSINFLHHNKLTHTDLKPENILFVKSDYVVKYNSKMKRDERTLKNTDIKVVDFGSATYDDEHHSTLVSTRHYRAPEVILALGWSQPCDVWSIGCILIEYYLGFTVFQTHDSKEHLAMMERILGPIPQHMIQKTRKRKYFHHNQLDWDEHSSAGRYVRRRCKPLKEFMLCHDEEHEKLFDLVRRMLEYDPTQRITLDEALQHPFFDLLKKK

Compound	IC50 (A-498) [nM]	Kd (FLT3) [µM]	IC50 (CLK1) [nM]	kinase selectivity (CLK1; among CLK1, CLK4, PLK4, FLT3)	IC50 (786-O) [nM]	IC50 (Kasumi-1) [nM]	IC50 (MV4-11) [nM]	IC50 (HT-29) [nM]	IC50 (OV-90) [nM]	IC50 (SKOV-3) [nM]	IC50 (CLK4) [nM]	IC50 (PLK4) [nM]	IC50 (HCT-116) [nM]	IC50 (Kasumi-3) [nM]
COc1cc2c(Nc3cc(C)[nH]n3)nc(N3CCCC3)nc2cc1OCCCN1CCCC1 [Compound 1, 6-Methoxy-N-(5-methyl-1H-pyrazol-3-yl)-2-(pyrrolidin-1-yl)-7-(3-(pyrrolidin-1-yl)propoxy)quinazolin-4-amine]	1000 to 5000	> 10	< 1000	selective CLK1/4 inhibitor	5000 to 10000	1000 to 5000	< 1000	5000 to 10000	1000 to 5000	1000 to 5000	5000 to 10000	> 10000	1000 to 5000	5000 to 10000
COc1cc2c(Nc3cc(C)[nH]n3)nc(N3CCC(F)(F)CC3)nc2cc1OCCCN1CCCC1 [Compound 3, 2-(4,4-difluoropiperidin-1-yl)-6-methoxy-N-(5-methyl-1H-pyrazol-3-yl)-7-(3-(pyrrolidin-1-yl)propoxy)quinazolin-4-amine]	5000 to 10000	1 to 5	< 1000	–	5000 to 10000	> 10000	1000 to 5000	5000 to 10000	1000 to 5000	1000 to 5000	< 1000	< 1000	1000 to 5000	5000 to 10000
COc1cc2c(Nc3cc(C)[nH]n3)nc(N3CCC3)nc2cc1OCCCN1CCCC1 [Compound 4, 2-(Azetidin-1-yl)-6-methoxy-N-(5-methyl-1H-pyrazol-3-yl)-7-(3-(pyrrolidin-1-yl)propoxy)quinazolin-4-amine]	> 10000	5 to 10	1000 to 5000	–	> 10000	> 10000	5000 to 10000	> 10000	> 10000	> 10000	5000 to 10000	> 10000	1000 to 5000	> 10000
COc1cc2c(Nc3cc(C4CC4)[nH]n3)nc(N3CCC(F)(F)CC3)nc2cc1OCCCN1CCCC1 [Compound 6, N-(5-cyclopropyl-1H-pyrazol-3-yl)-2-(4,4-difluoropiperidin-1-yl)-6-methoxy-7-(3-(pyrrolidin-1-yl)propoxy)quinazolin-4-amine]	1000 to 5000	–	< 1000	–	1000 to 5000	1000 to 5000	< 1000	1000 to 5000	1000 to 5000	1000 to 5000	< 1000	< 1000	1000 to 5000	1000 to 5000
COc1cc2c(Nc3cc(C(C)(C)C)[nH]n3)nc(N3CCC(F)(F)CC3)nc2cc1OCCCN1CCCC1 [Compound 7, N-(5-(tert-butyl)-1H-pyrazol-3-yl)-2-(4,4-difluoropiperidin-1-yl)-6-methoxy-7-(3-(pyrrolidin-1-yl)propoxy)quinazolin-4-amine]	1000 to 5000	> 10	< 1000	–	1000 to 5000	1000 to 5000	1000 to 5000	1000 to 5000	1000 to 5000	1000 to 5000	< 1000	> 10000	1000 to 5000	1000 to 5000
COc1cc2c(Nc3ncc(C)s3)nc(N3CCC(F)(F)CC3)nc2cc1OCCCN1CCCC1 [Compound 9, N-(2-(4,4-difluoropiperidin-1-yl)-6-methoxy-7-(3-(pyrrolidin-1-yl)propoxy)quinazolin-4-yl)-5-methylthiazol-2-amine]	1000 to 5000	> 10	< 1000	–	1000 to 5000	1000 to 5000	1000 to 5000	> 10000	5000 to 10000	1000 to 5000	< 1000	> 10000	5000 to 10000	1000 to 5000
COc1cc2c(Nc3cc(C4CCC4)[nH]n3)nc(N3CCC(F)(F)CC3)nc2cc1OCCCN1CCCC1 [Compound 10, N-(5-cyclobutyl-1H-pyrazol-3-yl)-2-(4,4-difluoropiperidin-1-yl)-6-methoxy-7-(3-(pyrrolidin-1-yl)propoxy)quinazolin-4-amine]	1000 to 5000	–	< 1000	–	1000 to 5000	< 1000	< 1000	1000 to 5000	1000 to 5000	1000 to 5000	< 1000	1000 to 5000	1000 to 5000	< 1000
COc1cc2c(Nc3nnc(C)s3)nc(N3CCC(F)(F)CC3)nc2cc1OCCCN1CCCC1 [Compound 12, N-(2-(4,4-difluoropiperidin-1-yl)-6-methoxy-7-(3-(pyrrolidin-1-yl)propoxy)quinazolin-4-yl)-5-methyl-1,3,4-thiadiazol-2-amine]	1000 to 5000	–	–	–	5000 to 10000	1000 to 5000	1000 to 5000	1000 to 5000	1000 to 5000	1000 to 5000	–	–	1000 to 5000	1000 to 5000
COc1cc2c(Nc3cc(C(C)C)[nH]n3)nc(N3CCC(F)(F)CC3)nc2cc1OCCCN1CCCC1 [Compound 13, 2-(4,4-difluoropiperidin-1-yl)-N-(5-isopropyl-1H-pyrazol-3-yl)-6-methoxy-7-(3-(pyrrolidin-1-yl)propoxy)quinazolin-4-amine]	1000 to 5000	1 to 5	< 1000	–	1000 to 5000	1000 to 5000	< 1000	1000 to 5000	1000 to 5000	1000 to 5000	< 1000	> 10000	1000 to 5000	1000 to 5000
